The source of these data is patent US7772252B2, “Heterocyclic substituted carbonyl derivatives and their use as dopamine D3 receptor ligands” (Aventis Pharmaceuticals Inc., priority 2001, dated 2010).

The structures appear in SMILES notation.

In one test the target is T1, cloned human dopamine D3 receptors (Homo sapiens, UniProt P35462).
T1 construct: expressed in transfected cells; membrane homogenate
T1 sequence (P35462 whole entry): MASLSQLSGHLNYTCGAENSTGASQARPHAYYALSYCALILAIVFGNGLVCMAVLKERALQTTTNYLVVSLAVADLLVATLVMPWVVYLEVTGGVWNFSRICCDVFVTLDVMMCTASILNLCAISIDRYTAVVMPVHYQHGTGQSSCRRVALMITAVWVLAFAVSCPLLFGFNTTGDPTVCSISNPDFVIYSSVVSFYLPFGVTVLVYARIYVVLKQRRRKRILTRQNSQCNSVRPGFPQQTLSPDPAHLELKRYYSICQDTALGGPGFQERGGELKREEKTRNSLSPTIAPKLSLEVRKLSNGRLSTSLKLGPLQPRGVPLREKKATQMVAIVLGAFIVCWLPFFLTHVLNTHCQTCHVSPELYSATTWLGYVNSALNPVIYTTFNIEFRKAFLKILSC
Put plainly: [N-Methyl-3H]Spiroperidol binding to cloned human dopamine D3 receptors. The settings on record: D3 Ki (nM). Summed up: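 Radioligand displacement with [N-methyl-3H]spiroperidol was run on membranes from a high-expressing CHO clone carrying human D3. Membranes were prepared in 10% DMSO and stored at −80° C.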
On to `O=C([C@@H]1C[C@H]1CN1CCC(c2noc3ccsc23)CC1)N1CCC2(CC1)OCCO2` [compound 829466], for which the Ki came to 24.8 nM.

Staying with this test, now noted: read-out: D3 Ki.
In the case of `Cn1nc(C2CCN(C[C@@H]3C[C@H]3C(=O)NCC3CCNCC3)CC2)c2cccc(C(F)(F)F)c21` [A002440433A], the Ki was determined as 180 nM.
Take `Cn1nc(C2CCN(C[C@@H]3C[C@H]3C(=O)NCC3CCNCC3)CC2)c2sccc21` [A002440434A]: the Ki was 462 nM.
Turning to `O=C(NCC1CCNCC1)[C@@H]1C[C@H]1CN1CCC(c2nn(CC(F)(F)F)c3ccsc23)CC1` [A002440435A], the Ki came to 305 nM.
On to `O=C(NCC1CCNCC1)[C@@H]1C[C@H]1CN1CCC(c2nn(-c3ccccc3)c3ccsc23)CC1` [A002440436A], for which the Ki worked out at 11.4 nM.
The same measure, in the same setting: to `O=C(NCC1CCNCC1)[C@@H]1C[C@H]1CN1CCC(c2noc3c(C(F)(F)F)cccc23)CC1` [A002440437A] belongs 41.2 nM; to `O=C([C@@H]1C[C@H]1CN1CCC(c2csc3cc(C(F)(F)F)ccc23)CC1)N1CCC[C@@H](Cn2ccnc2)C1` [A002609935, (3S-Imidazol-1-ylmethyl-piperidin-1-yl)-{2R-[4-(6-trifluoromethyl-benzo[b]thiophen-3-yl)-piperidin-1-ylmethyl]-1R-cyclopropyl}-methanone], 0.142 nM; to `O=C([C@@H]1C[C@H]1CN1CCN(c2csc3cc(F)ccc23)CC1)N1CCC(O)CC1` [compound 828716], 2.38 nM.
In the case of `O=C(NC1CC1)[C@@H]1C[C@H]1CN1CCC(c2noc3ccsc23)CC1` [compound 829460], the Ki turned out to be 158 nM.
The same measure, in the same setting: to `CC1(C)COCN1C(=O)[C@@H]1C[C@H]1CN1CCC(c2noc3ccsc23)CC1` [compound 829464] belongs 22.4 nM; to `O=C([C@@H]1C[C@H]1CN1CCC(c2noc3ccsc23)CC1)N1CCN(c2ccc(F)cc2)CC1` [compound 829465], 80.3 nM; to `O=C([C@@H]1C[C@H]1CN1CCC(c2noc3ccsc23)CC1)N1CCN(C/C=C/c2ccccc2)CC1` [compound 829467], 9.01 nM.
Turning to `O=C(NCCCn1ccnc1)[C@@H]1C[C@H]1CN1CCC(c2noc3ccsc23)CC1` [compound 829596], the Ki amounted to 4.41 nM.
Turning to `CC1CCC(NC(=O)C2CC2CN2C3CCC2CC(c2n[nH]c4ccccc24)C3)CC1` (stereo not shown) [compound 830115], the Ki was 45.3 nM.
For the compound `CCC1CCC(NC(=O)C2CC2CN2C3CCC2CC(c2n[nH]c4cc(F)ccc24)C3)CC1` (stereo not shown) [compound 830130], the Ki was found to be 6.68 nM.
Turning to `O=C([C@@H]1C[C@H]1CN1CCC(c2noc3ccsc23)CC1)N1CCC(O)CC1` [compound 830250], the Ki amounted to 48.6 nM.
On to `O=C(N[C@H]1CC[C@H](O)CC1)[C@@H]1C[C@H]1CN1CCC(c2noc3ccsc23)CC1` [compound 830251], for which the Ki came to 11.4 nM.
The same measure, in the same setting: to `O=C([C@@H]1C[C@H]1CN1CCC(c2noc3ccsc23)CC1)N1CCN(c2ccccn2)CC1` [compound 830252] belongs 110 nM; to `O=C([C@@H](O)CCN1CCC(c2noc3ccsc23)CC1)N1CCCCC1` [compound 830557], 97.4 nM.
For `O=C([C@H](O)CCN1CCC(c2noc3ccsc23)CC1)N1CCCCC1` [compound 830558], the Ki was determined as 34.2 nM.
With `O=C(NC1CCCCC1)[C@H](O)CCN1CCC(c2noc3ccsc23)CC1` [compound 830573], the Ki is 547 nM.
For the compound `O=C(NCCCc1ccccc1)[C@@H]1C[C@H]1CN1CCC(c2noc3ccsc23)CC1` [compound 830828], the Ki was found to be 8.57 nM.
Turning to `O=C(NCCc1ccccc1)[C@@H]1C[C@H]1CN1CCC(c2noc3ccsc23)CC1` [compound 830829], the Ki amounted to 5.3 nM.
The same measure, in the same setting: the result for `O=C(NCCc1c[nH]c2ccccc12)[C@@H]1C[C@H]1CN1CCC(c2noc3ccsc23)CC1` [compound 830830] reads 2.58 nM; that for `O=C(NCCc1c[nH]c2cc(F)ccc12)[C@@H]1C[C@H]1CN1CCC(c2noc3ccsc23)CC1` [compound 830831], 3.19 nM; that for `O=C(NCCCN1CCCC1=O)[C@@H]1C[C@H]1CN1CCC(c2noc3ccsc23)CC1` [compound 830832], 67.7 nM.
On the same count and under the same terms, to `O=C(NCCCN1CCCCC1)[C@@H]1C[C@H]1CN1CCC(c2noc3ccsc23)CC1` [compound 831045] belongs 335 nM; to `O=C(NCCCCc1ccccc1)[C@@H]1C[C@H]1CN1CCC(c2noc3ccsc23)CC1` [compound 831047], 2.87 nM.
On the same count and under the same terms, to `C[C@H]1CC[C@H](NC(=O)[C@H]2C[C@@H]2CN2CCN(c3noc4ccsc34)CC2)CC1` [compound 831082] belongs 38.2 nM; to `C[C@H]1CC[C@H](NC(=O)[C@H]2C[C@@H]2CN2CCC(c3cc4ccccc4s3)CC2)CC1` [compound 831147], 40.8 nM.
For the compound `O=C(NCCc1c[nH]cn1)[C@@H]1C[C@H]1CN1CCC(c2noc3ccsc23)CC1` [compound 831192], the Ki is 3.44 nM.
The same measure, in the same setting: the result for `O=C([C@@H]1C[C@H]1CN1CCC(c2noc3ccsc23)CC1)N1CCC(c2ccccc2)CC1` [compound 831193] reads 23.8 nM.
Same read-out and setting: to `O=C([C@@H]1C[C@H]1CN1CCC(c2noc3ccsc23)CC1)N1CCC(Cc2ccccc2)CC1` [compound 831194] belongs 5.06 nM; to `O=C(NCCCc1cccnc1)[C@@H]1C[C@H]1CN1CCC(c2noc3ccsc23)CC1` [compound 831195], 1.84 nM; to `COc1cc2c(cc1OC)CN(C(=O)[C@@H]1C[C@H]1CN1CCC(c3noc4ccsc34)CC1)CC2` [compound 831196], 7.81 nM.
On the same count and under the same terms, to `O=C(NCCCn1cnc(Cl)c1Cl)[C@@H]1C[C@H]1CN1CCC(c2noc3ccsc23)CC1` [compound 831198] belongs 1.76 nM.
As for `O=C([C@@H]1C[C@H]1CN1CCC(c2noc3ccsc23)CC1)N1CCc2ccccc2C1` [compound 831199], the Ki was found to be 2.78 nM.
For the compound `O=C(NCCC1=CCCCC1)[C@@H]1C[C@H]1CN1CCC(c2noc3ccsc23)CC1` [compound 831215], the Ki came to 5.92 nM.
Still for that read-out and setting: to `CC[C@H]1CC[C@H](NC(=O)[C@@H]2C[C@H]2CN2CCN(c3nn(-c4ccc(C(F)(F)F)cc4)c4ccccc34)CC2)CC1` [compound 831226] belongs 26.7 nM.
Same read-out and setting: the result for `Cc1ccc(S(=O)(=O)n2nc(N3CCN(C[C@@H]4C[C@H]4C(=O)NCCCn4ccnc4)CC3)c3sccc32)cc1` [compound 831267] reads 28.3 nM; that for `O=C(NCCCn1ccnc1)[C@@H]1C[C@H]1CN1CCN(c2csc3cc(C(F)(F)F)ccc23)CC1` [compound 831269], 4.08 nM; that for `O=C(NCCCc1ccccc1)[C@@H]1C[C@H]1CN1CCN(c2csc3cc(C(F)(F)F)ccc23)CC1` [compound 831270], 17.8 nM.
As for `O=C(NCCc1c[nH]c2ccccc12)[C@@H]1C[C@H]1CN1CCN(c2csc3cc(C(F)(F)F)ccc23)CC1` [compound 831271], the Ki is 6.57 nM.
`O=C(NCCCN1CCCC1)[C@@H]1C[C@H]1CN1CCC(c2noc3ccsc23)CC1` [compound 831272]: the Ki was 6.22 nM.
The same measure, in the same setting: to `O=C(NCCc1ccccn1)[C@@H]1C[C@H]1CN1CCC(c2noc3ccsc23)CC1` [compound 831274] belongs 17.4 nM.
Still for that read-out and setting: to `Cc1ccc2[nH]cc(CCNC(=O)[C@@H]3C[C@H]3CN3CCC(c4noc5ccsc45)CC3)c2c1` [compound 831277] belongs 5.38 nM; to `CN(CCc1c[nH]c2ccccc12)C(=O)[C@@H]1C[C@H]1CN1CCC(c2noc3ccsc23)CC1` [compound 831278], 18.1 nM; to `COc1c(F)ccc2c(C3CCN(C[C@@H]4C[C@H]4C(=O)NCCCn4ccnc4)CC3)noc12` [compound 831309], 40.6 nM.
Turning to `COc1c(F)ccc2c(C3CCN(C[C@@H]4C[C@H]4C(=O)NCCCc4ccccc4)CC3)noc12` [compound 831310], the Ki came to 103 nM.
Same read-out and setting: to `O=C(NCCCc1ccccc1)[C@@H]1C[C@H]1CN1CCC(c2nn(-c3ccc(C(F)(F)F)cc3)c3ccccc23)CC1` [compound 831312] belongs 214 nM; to `COc1ccc2c(c1)c(N1CCN(C[C@@H]3C[C@H]3C(=O)NCCCn3ccnc3)CC1)nn2-c1ccc(C(F)(F)F)cc1` [compound 831313], 134 nM.
On the same count and under the same terms, to `COc1ccc2c(c1)c(N1CCN(C[C@@H]3C[C@H]3C(=O)NCCCc3ccccc3)CC1)nn2-c1ccc(C(F)(F)F)cc1` [compound 831314] belongs 133 nM.
For the compound `O=C(NCCCn1ccnc1)[C@@H]1C[C@H]1CN1CCN(c2n[nH]c3ccsc23)CC1` [compound 831315], the Ki was determined as 29.3 nM.
Regarding `O=C(NCCOc1ccccc1)[C@@H]1C[C@H]1CN1CCC(c2noc3ccsc23)CC1` [compound 831343], the Ki turned out to be 13.7 nM.
For the compound `COc1ccc(CCNC(=O)[C@@H]2C[C@H]2CN2CCC(c3noc4ccsc34)CC2)cc1` [compound 831344], the Ki stood at 22.1 nM.
On the same count and under the same terms, to `O=C([C@@H]1C[C@H]1CN1CCC(c2noc3ccsc23)CC1)N1CCC(c2noc3ccsc23)CC1` [compound 831345] belongs 34.4 nM.

The same test, now with this note: read-out: d3Ki.
For the compound `CN(C(=O)CCCCN1CCN(c2csc3cc(F)ccc23)CC1)c1ccc(C(C)(C)C)cc1` [compound 822140], the Ki worked out at 113 nM.
Still for that read-out and setting: the result for `C[C@H]1CC[C@H](NC(=O)CCCN2CCN(c3csc4cc(C(F)(F)F)ccc34)CC2)CC1` [compound 826804] reads 67.4 nM; that for `CCOC(=O)[C@H]1CC[C@H](NC(=O)CCCN2CCN(c3csc4cc(C(F)(F)F)ccc34)CC2)CC1` [compound 826805], 14.2 nM.
On the same count and under the same terms, to `CC[C@H]1CC[C@H](NC(=O)CCCN2CCN(c3csc4cc(C(F)(F)F)ccc34)CC2)CC1` [compound 826806] belongs 40 nM; to `CCN(C(=O)CCCN1CCN(c2csc3cc(C(F)(F)F)ccc23)CC1)C1CCCCC1` [compound 826809], 71 nM.
As for `CC1(C)CCCN(C(=O)CCCN2CCN(c3csc4cc(C(F)(F)F)ccc34)CC2)C1` [compound 826817], the Ki was determined as 20 nM.
Consider `CCN(C(=O)CCCN1CCCN(c2csc3cc(F)ccc23)CC1)C1CCCCC1` [compound 826829], for which the Ki was 1.5 nM.
Same read-out and setting: the result for `O=C(CCCN1CCN(c2csc3cc(F)ccc23)CC1CCCc1ccccc1)N(CCO)C1CCCCC1` (stereo not shown) [compound 827111] reads 14.3 nM.
